# Measurements reported in patent US9249147B2, “Tyrosine kinase inhibitors” (CHEMBRIDGE CORPORATION, priority 2008, dated 2016).
# Values joined by “and” are separate entries in the source; they are usually repeats but may differ in a detail not shown here. Identical values can stand only once.
# Key:
# [1] = Metabolic Stability (liver micros., human), Cerep Study 13170; type: in vitro ADME; settings: 1.0E−06 M, human liver microsomes
# [2] = target: ALK (Homo sapiens, UniProt Q9UM73); test: Biochemical ALK inhibition (ADP Hunter, radiometric, Z-lyte); design: purchased DiscoveRx (ADP Hunter kit); Upstate/Millipore; Invitrogen
# ALK, sequence (Q9UM73 19-1620): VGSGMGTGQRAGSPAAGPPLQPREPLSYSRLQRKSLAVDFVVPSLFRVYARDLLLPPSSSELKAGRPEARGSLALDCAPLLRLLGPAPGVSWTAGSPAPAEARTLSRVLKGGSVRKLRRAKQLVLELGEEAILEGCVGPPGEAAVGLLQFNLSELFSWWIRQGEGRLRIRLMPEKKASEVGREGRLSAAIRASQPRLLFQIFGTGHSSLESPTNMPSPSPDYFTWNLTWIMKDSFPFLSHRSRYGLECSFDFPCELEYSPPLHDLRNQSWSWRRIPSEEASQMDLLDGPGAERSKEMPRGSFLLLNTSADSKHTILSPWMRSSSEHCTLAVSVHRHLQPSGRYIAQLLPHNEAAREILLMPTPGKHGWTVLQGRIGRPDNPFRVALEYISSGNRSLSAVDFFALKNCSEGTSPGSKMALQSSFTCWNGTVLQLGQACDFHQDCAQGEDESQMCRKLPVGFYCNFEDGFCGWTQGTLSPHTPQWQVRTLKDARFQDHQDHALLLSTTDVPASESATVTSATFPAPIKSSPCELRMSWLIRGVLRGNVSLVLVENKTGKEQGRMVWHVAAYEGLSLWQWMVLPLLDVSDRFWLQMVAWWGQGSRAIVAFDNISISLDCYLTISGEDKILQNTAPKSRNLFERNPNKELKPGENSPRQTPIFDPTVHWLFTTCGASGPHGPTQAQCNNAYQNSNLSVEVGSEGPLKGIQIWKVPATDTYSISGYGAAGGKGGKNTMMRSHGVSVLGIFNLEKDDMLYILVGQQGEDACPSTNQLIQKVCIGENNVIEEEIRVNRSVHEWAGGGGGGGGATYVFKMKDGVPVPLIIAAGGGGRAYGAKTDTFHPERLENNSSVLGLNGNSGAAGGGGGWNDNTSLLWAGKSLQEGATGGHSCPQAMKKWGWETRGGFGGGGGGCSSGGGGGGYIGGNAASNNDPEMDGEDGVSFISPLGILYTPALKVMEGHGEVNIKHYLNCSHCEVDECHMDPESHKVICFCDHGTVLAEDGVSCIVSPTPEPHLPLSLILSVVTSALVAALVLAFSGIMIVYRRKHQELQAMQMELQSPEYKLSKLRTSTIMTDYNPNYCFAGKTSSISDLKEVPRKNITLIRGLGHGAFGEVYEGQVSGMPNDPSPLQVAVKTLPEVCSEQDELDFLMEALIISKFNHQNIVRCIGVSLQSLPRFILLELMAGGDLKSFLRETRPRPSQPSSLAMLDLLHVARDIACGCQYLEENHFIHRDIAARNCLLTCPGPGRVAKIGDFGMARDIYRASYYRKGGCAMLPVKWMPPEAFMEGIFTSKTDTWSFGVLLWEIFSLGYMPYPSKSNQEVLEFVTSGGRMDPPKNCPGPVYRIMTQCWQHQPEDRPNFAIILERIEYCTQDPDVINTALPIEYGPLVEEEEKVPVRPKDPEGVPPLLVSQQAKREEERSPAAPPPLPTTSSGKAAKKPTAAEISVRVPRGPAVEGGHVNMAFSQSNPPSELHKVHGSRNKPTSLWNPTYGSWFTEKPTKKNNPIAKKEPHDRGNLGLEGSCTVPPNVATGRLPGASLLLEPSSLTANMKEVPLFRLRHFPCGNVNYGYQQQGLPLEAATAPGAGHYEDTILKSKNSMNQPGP
# Experimental: Compound (II) (also labeled as CRL241 in some of the figures) was tested using several diverse assay technologies utilizing common assay readouts such as ADP generation detection and FRET or radiolabel-based measurement of phosphate incorporation in the substrate.
# Biochemical potency of ALK inhibition (IC50) for compound (II) was determined in multiple experiments using a commercial ADP detection assay (ADP Hunter, DiscoveRx), and in radiometric (Upstate/Millipore) or FRET based fluorimetric (Z-lyte, Invitrogen) assays.
# [3] = target: hERG (Homo sapiens, UniProt Q12809); test: hERG standard patch clamp in HEK293 (Cerep ADMET Study 13170); type: cell-based; settings: 1 μM
# hERG, sequence (Q12809 whole entry): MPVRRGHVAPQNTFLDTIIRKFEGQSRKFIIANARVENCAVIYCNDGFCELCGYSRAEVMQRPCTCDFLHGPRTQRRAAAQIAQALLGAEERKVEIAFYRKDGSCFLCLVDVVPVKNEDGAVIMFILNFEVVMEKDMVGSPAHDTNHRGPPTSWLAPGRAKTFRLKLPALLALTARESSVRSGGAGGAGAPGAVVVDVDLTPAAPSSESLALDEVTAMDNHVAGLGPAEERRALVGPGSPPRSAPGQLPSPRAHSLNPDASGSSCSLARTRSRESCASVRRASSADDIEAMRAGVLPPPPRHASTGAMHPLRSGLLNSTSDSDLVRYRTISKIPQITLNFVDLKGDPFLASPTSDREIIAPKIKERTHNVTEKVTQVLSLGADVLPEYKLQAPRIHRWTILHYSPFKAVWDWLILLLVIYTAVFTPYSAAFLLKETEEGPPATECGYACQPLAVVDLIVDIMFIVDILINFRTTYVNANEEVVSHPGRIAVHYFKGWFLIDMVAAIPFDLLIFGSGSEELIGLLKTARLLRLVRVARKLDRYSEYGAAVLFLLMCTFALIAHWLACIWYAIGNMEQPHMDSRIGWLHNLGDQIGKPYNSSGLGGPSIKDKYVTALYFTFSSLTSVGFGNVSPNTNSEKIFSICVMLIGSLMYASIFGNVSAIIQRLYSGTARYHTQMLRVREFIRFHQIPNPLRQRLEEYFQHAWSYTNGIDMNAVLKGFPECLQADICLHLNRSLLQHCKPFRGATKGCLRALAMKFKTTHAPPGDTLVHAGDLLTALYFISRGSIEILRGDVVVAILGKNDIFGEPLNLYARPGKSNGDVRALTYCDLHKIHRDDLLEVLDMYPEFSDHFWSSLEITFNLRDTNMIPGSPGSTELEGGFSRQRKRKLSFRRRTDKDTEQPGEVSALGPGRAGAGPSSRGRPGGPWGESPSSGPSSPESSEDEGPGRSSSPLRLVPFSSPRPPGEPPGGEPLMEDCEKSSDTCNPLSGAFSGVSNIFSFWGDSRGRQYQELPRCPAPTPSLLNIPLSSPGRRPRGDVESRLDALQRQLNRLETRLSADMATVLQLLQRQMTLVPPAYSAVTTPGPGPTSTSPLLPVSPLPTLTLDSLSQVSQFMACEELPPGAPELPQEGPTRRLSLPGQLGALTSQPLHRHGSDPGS
# Experimental: The cardiac potassium channel, hERG, is responsible for the rapid delayed rectifier current (IKr) in the human ventricle. Inhibition of IKr is the most common cause of cardiac action potential prolongation by noncardiac drugs. Increased action potential duration causes prolongation of the QT interval that has been associated with a dangerous ventricular arrhythmia, torsade de pointer.
# Compound (II) was initially tested at 1 μM concentration using a standard patch clamp protocol (Cerep ADMET Study 13170). The hERG channel was expressed in a human embryonic kidney (HEK293) cell line that lacks endogenous hERG channels. […] We have retested compound (II) in hERG assay in a range of lower concentrations to estimate IC50 of hERG inhibition more precisely (Qpatch 16 automated whole-cell patch clamp protocol in CHO-K1 cell line stably expressing hERG, Cerep hERG Study 13292). […] This kind of potency in hERG inhibition should not represent a significant clinical problem since the high degree of hERG inhibition would occur only at the compound concentrations above the expected therapeutic levels.
# [4] = target: T1, Src (Homo sapiens, UniProt P12931); test: Invitrogen SelectScreen Z-lyte kinase assay, Src; type: biochemical
# T1 construct: purchased Invitrogen
# T1 sequence (P12931 whole entry): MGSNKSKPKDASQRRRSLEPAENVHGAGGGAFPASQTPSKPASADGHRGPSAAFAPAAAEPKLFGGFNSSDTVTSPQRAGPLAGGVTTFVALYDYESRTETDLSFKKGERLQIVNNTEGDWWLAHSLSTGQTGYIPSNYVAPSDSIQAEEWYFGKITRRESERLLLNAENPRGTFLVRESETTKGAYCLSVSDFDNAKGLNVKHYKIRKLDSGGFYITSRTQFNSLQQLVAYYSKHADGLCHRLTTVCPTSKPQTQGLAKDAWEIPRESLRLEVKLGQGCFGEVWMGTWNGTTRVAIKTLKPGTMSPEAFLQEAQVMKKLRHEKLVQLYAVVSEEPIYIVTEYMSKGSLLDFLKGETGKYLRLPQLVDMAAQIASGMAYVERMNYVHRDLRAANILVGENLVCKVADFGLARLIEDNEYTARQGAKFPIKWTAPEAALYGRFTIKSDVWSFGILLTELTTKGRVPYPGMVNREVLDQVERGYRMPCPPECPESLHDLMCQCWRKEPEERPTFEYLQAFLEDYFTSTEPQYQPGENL
# [5] = target: T2, CYP2D6 (Homo sapiens, UniProt P10635); test: CYP2D6 Inhibition (recombinant, MFC substrate); type: in vitro ADME
# T2 construct: purchased Cerep (contract assay, ADMET Study 13170)
# T2 sequence (P10635 whole entry): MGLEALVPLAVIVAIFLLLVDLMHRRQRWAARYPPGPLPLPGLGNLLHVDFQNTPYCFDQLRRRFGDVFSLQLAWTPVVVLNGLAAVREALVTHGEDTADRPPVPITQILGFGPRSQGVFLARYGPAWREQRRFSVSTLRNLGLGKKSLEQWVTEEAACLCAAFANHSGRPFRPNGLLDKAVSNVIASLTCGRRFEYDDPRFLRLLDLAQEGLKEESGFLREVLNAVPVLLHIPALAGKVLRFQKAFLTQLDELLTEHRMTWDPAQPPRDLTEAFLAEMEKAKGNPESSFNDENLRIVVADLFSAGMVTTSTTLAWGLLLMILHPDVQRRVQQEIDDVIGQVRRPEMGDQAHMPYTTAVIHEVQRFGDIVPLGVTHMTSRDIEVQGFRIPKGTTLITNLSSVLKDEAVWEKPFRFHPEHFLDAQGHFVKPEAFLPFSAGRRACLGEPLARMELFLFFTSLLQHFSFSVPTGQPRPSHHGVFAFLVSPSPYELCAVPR
# [6] = system: Karpas299; test: Cell proliferation inhibition, ALCL line Karpas299; type: cell-based; settings: Homo sapiens, KARPAS-299; Example 4, most sensitive cell lines; read-out: Proliferation IC50 Karpas299
# Outline: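 NPM-ALK-positive Karpas-299 cells (2×10^4 per well) were treated with compound at final concentrations of 25 to 0.78125 μM, with DMSO-only controls. Proliferation and viability were read colorimetrically by XTT reduction to formazan.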
# [7] = system: UConn; test: Cell proliferation inhibition, ALCL line UConn; type: cell-based; settings: Example 4, least sensitive line; read-out: Proliferation IC50 UConn
# Source text: Cell proliferation inhibition assays were run for compound (II) with the five target NPM-ALK-dependent ALCL cell lines (Karpas 299, SuDHL-1, JB6, SupM2, UConn) and 12 unrelated cell lines (HEK293, CHO-K1, MCF7, HepG2, H292, H520, H1581, H596, H522, CHA-GO-K1, UMC-11, SK-MES1). […] The pronounced target cell-killing effect is also observed (molecular mechanisms to be determined).
# [8] = target: T3, CYP1A2 (Homo sapiens, UniProt P05177); test: CYP1A2 Inhibition (recombinant, CEC substrate); type: in vitro ADME; settings: for CYP1A2 % Inhibition of Control Values, 1st/2nd/3rd: listed as CRL241, mean
# T3 construct: purchased Cerep (contract assay, ADMET Study 13170)
# T3 sequence (P05177 1-516): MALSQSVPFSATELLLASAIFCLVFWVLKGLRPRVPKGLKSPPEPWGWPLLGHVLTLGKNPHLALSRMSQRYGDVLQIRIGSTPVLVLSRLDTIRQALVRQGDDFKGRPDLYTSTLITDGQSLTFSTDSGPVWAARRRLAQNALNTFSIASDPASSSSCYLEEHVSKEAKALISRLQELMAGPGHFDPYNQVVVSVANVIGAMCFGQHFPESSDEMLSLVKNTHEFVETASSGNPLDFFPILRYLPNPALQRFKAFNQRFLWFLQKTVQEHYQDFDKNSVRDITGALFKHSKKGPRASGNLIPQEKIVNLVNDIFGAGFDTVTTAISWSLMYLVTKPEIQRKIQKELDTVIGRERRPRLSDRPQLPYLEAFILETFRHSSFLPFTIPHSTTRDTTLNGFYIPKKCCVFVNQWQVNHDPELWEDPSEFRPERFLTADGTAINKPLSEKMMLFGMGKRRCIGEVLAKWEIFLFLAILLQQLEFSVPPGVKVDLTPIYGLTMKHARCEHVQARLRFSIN
# [9] = target: T4, Fer (Homo sapiens, UniProt P16591); test: Invitrogen SelectScreen Z-lyte kinase assay, Fer; type: biochemical
# T4 construct: purchased Invitrogen
# T4 sequence (P16591 whole entry): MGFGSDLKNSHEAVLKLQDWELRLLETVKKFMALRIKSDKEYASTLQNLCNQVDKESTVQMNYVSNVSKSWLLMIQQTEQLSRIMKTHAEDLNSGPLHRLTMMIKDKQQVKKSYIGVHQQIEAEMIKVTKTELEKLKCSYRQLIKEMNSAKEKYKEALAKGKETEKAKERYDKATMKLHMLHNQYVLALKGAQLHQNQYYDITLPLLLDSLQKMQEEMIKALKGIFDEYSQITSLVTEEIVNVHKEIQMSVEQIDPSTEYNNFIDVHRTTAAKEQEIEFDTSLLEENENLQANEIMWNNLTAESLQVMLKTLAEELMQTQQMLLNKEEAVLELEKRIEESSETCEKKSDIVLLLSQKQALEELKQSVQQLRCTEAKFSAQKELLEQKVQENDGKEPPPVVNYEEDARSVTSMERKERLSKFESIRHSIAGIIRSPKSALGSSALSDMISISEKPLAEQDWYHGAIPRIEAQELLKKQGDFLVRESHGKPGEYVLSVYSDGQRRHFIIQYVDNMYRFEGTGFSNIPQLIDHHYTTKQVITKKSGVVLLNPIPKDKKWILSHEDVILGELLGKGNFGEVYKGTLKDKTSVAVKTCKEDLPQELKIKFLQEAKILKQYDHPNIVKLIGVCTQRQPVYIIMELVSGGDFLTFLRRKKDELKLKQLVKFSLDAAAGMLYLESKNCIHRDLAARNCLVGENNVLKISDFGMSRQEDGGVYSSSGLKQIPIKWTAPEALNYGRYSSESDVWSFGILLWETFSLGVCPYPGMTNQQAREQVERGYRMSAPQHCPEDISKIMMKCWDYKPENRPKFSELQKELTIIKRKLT
smiles,measurement,setting,value
Cc1ccc(F)cc1C[C@H](C)Nc1cc[nH]c(=O)c1-c1nc2cc3c(cc2[nH]1)C(=O)N(CCN1CCCC1)C3 [compound (II)],Mean Parent Remaining,[1]; 1 hr incubation,73%
same,Parent Remaining Mean,[1]; Table 8B,73%
same,Parent Remaining 1st/2nd,"[1]; Table 8B, listed as CRL241",70.3% and 76.4%
same,IC50,"[2]; ADP Hunter, radiometric and Z-lyte assays, 100 or 200 μM ATP",9 to 11 nM
same,Selectivity for ALK versus the related IR and IGF1R,[2]; radiometric assay (Upstate/Millipore),10-15 fold
same,% inhibition of tail current,[3],50.4%
same,IC50,[4],32 nM
same,CYP2D6 inhibition,[5]; 1 μM and 5 μM,No inhibition was detected
same,activity at 1 µM,"[5]; human, recombinant CYP2D6, probe MFC, 1.0E−06 M, Table 5B individual results, read-out: CYP2D6 % Inhibition of Control Values, 1st/2nd/3rd",101%
same,activity at 5 µM,"[5]; human, recombinant CYP2D6, probe MFC, 5.0E−06 M, Table 5B individual results, read-out: CYP2D6 % Inhibition of Control Values, 1st/2nd/3rd",84.9%
same,inhibition at 1 µM,"[5]; human, recombinant CYP2D6, probe MFC, 1.0E−06 M, read-out: CYP2D6 % Inhibition of Control Values",2%
same,inhibition at 5 µM,"[5]; human, recombinant CYP2D6, probe MFC, 5.0E−06 M, read-out: CYP2D6 % Inhibition of Control Values",16%
same,IC50,[6],5 to 10 nM
same,IC50,[7],30 nM
same,CYP1A2 inhibition,[8]; 1 μM and 5 μM,No inhibition was detected
same,"CYP1A2 % Inhibition of Control Values, 1st/2nd/3rd","[8]; 1.0E−06 M, Table 5B individual results",106.6%
same,"CYP1A2 % Inhibition of Control Values, 1st/2nd/3rd","[8]; 5.0E−06 M, Table 5B individual results",90.3%
same,activity at 1 µM,"[8]; recombinant CYP1A2, probe CEC, 1.0E−06 M, Table 5B individual results, read-out: CYP1A2 % Inhibition of Control Values, 1st/2nd/3rd",110%
same,activity at 5 µM,"[8]; recombinant CYP1A2, probe CEC, 5.0E−06 M, Table 5B individual results, read-out: CYP1A2 % Inhibition of Control Values, 1st/2nd/3rd",92.1%
same,inhibition at 1 µM,"[8]; recombinant CYP1A2, probe CEC, 1.0E−06 M, read-out: CYP1A2 % Inhibition of Control Values",-7%
same,inhibition at 5 µM,"[8]; recombinant CYP1A2, probe CEC, 5.0E−06 M, read-out: CYP1A2 % Inhibition of Control Values",10%
same,IC50,[9],42 nM
